In patent US9198886B2, “Use of 2,5-dihydroxybenzene for the treatment of ocular diseases” (priority 2006, dated 2015):

Legend:
pterygium = experiment: Topical solution in a patient with unilateral pterygium; assay type: in vivo, human; details: 2.5% solution, one drop four times per day, two weeks
Source text: FIG. 3. […] The treatment consists of the application of 4 drops of said solution daily, for two weeks.
The solution was applied topically to a patient suffering from unilateral pterygium, as one drop four times per day.

[1] = test system: human retinal endothelial cells (HREC); experiment: Proliferation of human retinal endothelial cells (crystal violet); assay type: cell-based; details: 100 μM, 72 hours; DHBS as calcium salt
Experimental: (§1) Primary cultures of human retinal endothelial cells (HREC) were used. Cells were obtained from Cell Systems (Virginia, USA) and subcultured with CSC complete medium (Cell Systems). Cells at 2 to 5 passages were seeded in 24-well plates at 7,500 cells/well density and, once attached, the cells were treated or not treated (controls) with 2A-5HBS (500 and 1000 μM) or 5A-2HBS (500 and 1000 μM) and they were allowed to proliferate for 72 hours, with daily medium changes. After that, the proliferation of HREC was evaluated by staining the fixed cells with crystal violet. The number of cells is proportional to the amount of retained dye, which was spectrophotometrically determined by measuring absorbance at 595 nm after removing the dye from the cells. Data are expressed as the percentage of absorbance at 595 nm obtained in control conditions. Data were obtained from two different experiments performed in triplicate.
as §1, with “2,5-DHCME (50” for “2A-5HBS (500”, “100” for “1000 μM) or 5A-2HBS (500 and 1000”, “changes. Under the same conditions, other cultures were treated with calcium 2,5-dihydroxybenzenesulfonate (DHBS; 100 μM) for comparison.” for “changes.”

[2] = test system: angiogenesis induced by Helicobacter pylori in the human gastric mucosa; experiment: Gastric mucosa biopsy in a patient chronically infected with Helicobacter pylori; assay type: in vivo; details: 500 mg/day oral, one week
Experimental: FIG. 5. Helicobacter pylori • A) Hematoxylin-eosin staining of the gastric mucosa of a sample obtained from a patient infected with Helicobacter pylori before treatment. The arrows and the asterisk indicate the formation of neovessels in the mucosa protruding the gastric lumen through the lost epithelial layer. • B) Hematoxylin-eosin staining of the gastric mucosa of a sample obtained from the same patient infected with Helicobacter pylori after administering 500 mg of 2,5-dihydroxybenzenesulfonate (DHBS) daily for a week.
A biopsy of the gastric mucosa was performed in a patient chronically infected with Helicobacter pylori before the oral treatment with 2,5-dihydroxybenzene sulfonic acid (Dobesilate) (500 mg/day). After a week of treatment, another biopsy was performed in the patient. Both biopsies were evaluated using hematoxylin-eosin staining. […] Microscopically, the arrows and the asterisk indicate the formation of neovessels in the mucosa protruding the gastric lumen through the lost epithelial layer. […] This example illustrates that the use of DHBS is beneficial in the treatment of gastritis and angiogenesis caused by the infection with Helicobacter pylori.

[3] = test system: experimentally induced asthma; experiment: OVA-induced asthma in mice (methacholine Penh, BAL cell count); assay type: in vivo, Balb/c mice
Experimental: Effect of potassium 2,5-diacetoxybenzene sulfonate (DABS) on bronchoconstriction in asthmatic mice treated with methacholine. All the mice were exposed to nebulized methacholine (MC; 5 and 20 mg/ml). Bronchoconstriction was determined as the enhanced pause. (Penh), calculated as described in the corresponding example (example 13). As control, the background and the exposure to nebulized saline (0.9% NaCl) are shown. *p<0.05 vs. saline.
Effect of potassium 2,5-diacetoxybenzene sulfonate (DABS) on the inflammatory cell count in the bronchoalveolar lavage (BAL) in asthmatic mice. The data are expressed as mean±SEM of the total number of detected cells in the BAL of the right lung of each animal. *p<0.05, ***p<0.001 vs. group treated with vehicle.
6-9 week old Balb/c mice were used. The ovoalbumin (OVA)/aluminum complex was obtained after dissolving OVA (500 μg/mL) in PBS, and mixing it with an equal volume of 10% aluminum potassium sulfate at pH 6.5 for 1 hour. After centrifuging the pellet (750×g for 5 minutes) the OVA/aluminum pellet was resuspended in distilled water. On day 0, the mice were injected intraperitoneally injected with 100 μg of OVA/aluminum. Eight days later, the mice were anesthetized and exposed to 250 μg of OVA. Later, they were administered 125 μg of OVA on days 15, 18 and 21. […].
The following treatments were administered to the animals: (i.p.) vehicle from day 2, potassium 2,5-diacetoxybencene sulfonate (DABS; 100 mg/kg/day, i.p.) from day 2, DABS (100 mg/kg/day, i.p.) from day 8 and Combivent (20 μg/200 μg in aerosol) on days 20, 21 and 22, the latter as a reference treatment.
In order to evaluate the pulmonary function, the response to methacholine in conscious mice was determined, 24 hours after the last exposure to OVA. The mice were exposed to increasing methacholine concentrations (5 and 20 mg/mL) in the form of aerosol using an ultrasonic nebulizer during 2 minutes. The degree of bronchoconstriction was expressed as the enhanced pause (Penh) which correlates to the mouse air resistance, impedance and pressure within the pleura. The Penh was calculated using the formula Penh=[(Te/Rt−1)×(PEF/PIF)], where Te is expiratory time, Rt is relaxation time, PEF is peak expiratory flow and PIF is peak inspiratory flow×0.67 coefficient.
After measuring airway hyperreactivity, the mice were sacrificed and the bronchoalveolar lavage (BAL) of the right lung was collected. The total number of cells in the BAL fluid was determined.

Row | Compound | pterygium appearance (pterygium) | HREC proliferation [1] | angiogenic activity in gastric mucosa [2] | epithelial membrane of gastric mucosa [2] | gastric mucosa symptoms of congestion and erythema [2] | methacholine induced bronchoconstriction (Penh) ([3]; 100 mg/kg/day i.p. from day 2) | methacholine induced bronchoconstriction (Penh) ([3]; 100 mg/kg/day i.p. from day 8) | presence of BAL cells in asthmatic mice ([3]; 100 mg/kg/day i.p., vs vehicle) | BAL cell reduction compared with Combivent ([3]; DABS 100 mg/kg/day i.p., Combivent aerosol days 20-22) | increase of the Penh after exposure to MC vs saline ([3]; MC 5 and 20 mg/ml, Combivent 20 μg/200 μg aerosol days 20-22 or DABS 100 mg/kg/day i.p.)
1 | O=S(=O)(O)c1cc(O)ccc1O [DHBS, 2,5-dihydroxybenzene sulfonic acid] | partial reversal of the pterygium | failed to significantly affect HREC proliferation | less angiogenic activity | apparently normal | symptoms of congestion and erythema disappear | – | – | – | – | –
2 | CC(=O)Oc1ccc(OC(C)=O)c(S(=O)(=O)[O-])c1.[K+] [DABS, potassium 2,5-diacetoxybenzene sulfonate] | – | – | – | – | – | completely prevented | completely prevented | significantly reduced | even more than the treatment with Combivent | do not show a significant increase of the Penh
